For one assay, the system named is HCV genotype 1b replicon. In words: HCV replicon assay, genotype 1b replicon EC50. Format: cell-based, Hepatitis C virus. To be noted: Hepatitis C virus, HCV replicon, genotype 1b, read-out: EC50 [gt-1b]. The essentials: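 Readout was replicon RNA copy number, by 32P-probe protection or TaqMan normalized to cellular cyclophilin A RNA, or luciferase activity for luciferase:Neo^r fusion lines. Cells were exposed to serially diluted compound for 24-48 hours without G418, then washed and lysed. EC50 derived from four-parameter fit relative to DMSO.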

The target in assay [1] is HCV NS3/4A protease genotype 1b (Hepatitis C virus genotype 1b, UniProt P26663). The experiment in a line: HCV NS3/4A protease time-resolved fluorescence (TRF) assay, Ki against genotype 1b. Format: biochemical. Particulars: IC50 [gt-1b], NS3/4A protease TRF assay, genotype 1b enzyme 0.2 nM. The essentials: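 First, protease (genotype 1b 0.2 nM, A156T 0.4 nM, genotype 3a 0.025 nM) is preincubated 30 min with inhibitor. Next, 25 nM TRF substrate starts the reaction, run 2.5 h at room temperature. Finally, europium fluorescence is read and Ki calculated from IC50.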

Where two headings read alike, the source gives them in different places.

For `CCCOC(=O)N[C@H]1CCCCC/C=C\[C@@H]2C[C@@]2(C(=O)NS(=O)(=O)C2(C)CC2)NC(=O)[C@@H]2C[C@]3(CCc4c(c(C5CC5)nc5ccc(OC)cc45)O3)CN2C1=O` [Example 437, propyl [(2R,6S,12Z,13aS,14aR,16aS)-5′-cyclopropyl-9′-methoxy-14a-{[(1-methylcyclopropyl)sulfonyl]carbamoyl}-5,16-dioxo-1,1′,2′,5,6,7,8,9,10,11,13a,14,14a,15,16,16a-hexadecahydrospiro[cyclopropa[e]pyrrolo[1,2-a][1,4]diazacyclopentadecine-2,3′-pyrano[2,3-c]quinolin]-6-yl]carbamate], in the assay on HCV genotype 1b replicon (K+ salt), the EC50 amounted to 1 nM. In assay [1] (K+ salt), the concentration for half-maximal inhibition (IC50) worked out at 0.016 nM.

Consider `COCCCOc1ccc2nc(C)c3c(c2c1)CC[C@]1(C[C@H]2C(=O)N[C@]4(C(=O)NS(=O)(=O)C5(C)CC5)C[C@H]4/C=C\CCCCC[C@H](NC(=O)OC(C)(C)C)C(=O)N2C1)O3` [Example 438, tert-butyl [(2R,6S,12Z,13aS,14aR,16aS)-9′-(3-methoxypropoxy)-5′-methyl-14a-{[(1-methylcyclopropyl)sulfonyl]carbamoyl}-5,16-dioxo-1,1′,2′,5,6,7,8,9,10,11,13a,14,14a,15,16,16a-hexadecahydrospiro[cyclopropa[e]pyrrolo[1,2-a][1,4]diazacyclopentadecine-2,3′-pyrano[2,3-c]quinolin]-6-yl]carbamate], for which, in the assay with HCV genotype 1b replicon, the EC50 amounted to 3.5 nM. In assay [1], this compound registered a half-maximal inhibitory concentration (IC50) of 0.023 nM.

On to `CCc1nc2ccc(OC)cc2c2c1O[C@]1(C[C@H]2F)C[C@H]2C(=O)N[C@]3(C(=O)NS(=O)(=O)C4(C)CC4)C[C@H]3/C=C\CCCCC[C@H](NC(=O)OC(C)(C)C)C(=O)N2C1` [Example 439, tert-butyl [(1′R,2S,6S,12Z,13aS,14aR,16aS)-5′-ethyl-1′-fluoro-9′-methoxy-14a-{[(1-methylcyclopropyl)sulfonyl]carbamoyl}-5,16-dioxo-1,1′,2′,5,6,7,8,9,10,11,13a,14,14a,15,16,16a-hexadecahydrospiro[cyclopropa[e]pyrrolo[1,2-a][1,4]diazacyclopentadecine-2,3′-pyrano[2,3-c]quinolin]-6-yl]carbamate], for which the EC50 in the assay with HCV genotype 1b replicon came out at 1.55 nM. In assay [1], 0.009 nM corresponded to half-maximal inhibition (IC50).

As for `COc1ccc2nc(C(F)F)c3c(c2c1)CC[C@]1(C[C@H]2C(=O)N[C@]4(C(=O)NS(=O)(=O)C5(C)CC5)C[C@H]4/C=C\CCCCC[C@H](NC(=O)OCC(C)C)C(=O)N2C1)O3` [Example 440, 2-methylpropyl [(2R,6S,12Z,13aS,14aR,16aS)-5′-(difluoromethyl)-9′-methoxy-14a-{[(1-methylcyclopropyl)sulfonyl]carbamoyl}-5,16-dioxo-1,1′,2′,5,6,7,8,9,10,11,13a,14,14a,15,16,16a-hexadecahydrospiro[cyclopropa[e]pyrrolo[1,2-a][1,4]diazacyclopentadecine-2,3′-pyrano[2,3-c]quinolin]-6-yl]carbamate], the EC50 in the assay on HCV genotype 1b replicon (K+ salt) is 1.98 nM. Besides, in assay [1] (K+ salt), the IC50 is 0.016 nM.

In the case of `COc1ccc2nc(C(F)F)c3c(c2c1)CC[C@]1(C[C@H]2C(=O)N[C@]4(C(=O)NS(=O)(=O)C5(C)CC5)C[C@H]4/C=C\CCCCC[C@H](NC(=O)OCC(C)(C)C)C(=O)N2C1)O3` [Example 441, 2,2-dimethylpropyl [(2R,6S,12Z,13aS,14aR,16aS)-5′-(difluoromethyl)-9′-methoxy-14a-{[(1-methylcyclopropyl)sulfonyl]carbamoyl}-5,16-dioxo-1,1′,2′,5,6,7,8,9,10,11,13a,14,14a,15,16,16a-hexadecahydrospiro[cyclopropa[e]pyrrolo[1,2-a][1,4]diazacyclopentadecine-2,3′-pyrano[2,3-c]quinolin]-6-yl]carbamate], in the assay on HCV genotype 1b replicon (K+ salt), the EC50 is 1.53 nM. The concentration for half-maximal inhibition (IC50) in assay [1] (K+ salt) turned out to be 0.016 nM.

As for `COc1ccc2nc(C(F)F)c3c(c2c1)CC[C@]1(C[C@H]2C(=O)N[C@]4(C(=O)NS(=O)(=O)C5(C)CC5)C[C@H]4/C=C\CCCCC[C@H](NC(=O)O[C@@H](C)C(C)C)C(=O)N2C1)O3` [Example 442, (2S)-3-methylbutan-2-yl [(2R,6S,12Z,13aS,14aR,16aS)-5′-(difluoromethyl)-9′-methoxy-14a-{[(1-methylcyclopropyl)sulfonyl]carbamoyl}-5,16-dioxo-1,1′,2′,5,6,7,8,9,10,11,13a,14,14a,15,16,16a-hexadecahydrospiro[cyclopropa[e]pyrrolo[1,2-a][1,4]diazacyclopentadecine-2,3′-pyrano[2,3-c]quinolin]-6-yl]carbamate], the EC50 in the assay on HCV genotype 1b replicon (K+ salt) was 1.68 nM. In assay [1] (K+ salt), the IC50 is 0.024 nM.

Take `COc1ccc2nc(C(F)F)c3c(c2c1)CC[C@]1(C[C@H]2C(=O)N[C@]4(C(=O)NS(=O)(=O)C5(C)CC5)C[C@H]4/C=C\CCCCC[C@H](NC(=O)O[C@H](C)C(C)C)C(=O)N2C1)O3` [Example 443, (2R)-3-methylbutan-2-yl [(2R,6S,12Z,13aS,14aR,16aS)-5′-(difluoromethyl)-9′-methoxy-14a-{[(1-methylcyclopropyl)sulfonyl]carbamoyl}-5,16-dioxo-1,1′,2′,5,6,7,8,9,10,11,13a,14,14a,15,16,16a-hexadecahydrospiro[cyclopropa[e]pyrrolo[1,2-a][1,4]diazacyclopentadecine-2,3′-pyrano[2,3-c]quinolin]-6-yl]carbamate]: the concentration for a half-maximal effect (EC50) in the assay on HCV genotype 1b replicon (K+ salt) stood at 1.79 nM. Besides, the 50% inhibitory concentration (IC50) in assay [1] (K+ salt) worked out at 0.025 nM.

On to `CC[C@H](C)OC(=O)N[C@H]1CCCCC/C=C\[C@@H]2C[C@@]2(C(=O)NS(=O)(=O)C2(C)CC2)NC(=O)[C@@H]2C[C@]3(CCc4c(c(C(F)F)nc5ccc(OC)cc45)O3)CN2C1=O` [Example 444, (2S)-butan-2-yl [(2R,6S,12Z,13aS,14aR,16aS)-5′-(difluoromethyl)-9′-methoxy-14a-{[(1-methylcyclopropyl)sulfonyl]carbamoyl}-5,16-dioxo-1,1′,2′,5,6,7,8,9,10,11,13a,14,14a,15,16,16a-hexadecahydrospiro[cyclopropa[e]pyrrolo[1,2-a][1,4]diazacyclopentadecine-2,3′-pyrano[2,3-c]quinolin]-6-yl]carbamate], for which the 50% effective concentration (EC50) in the assay with HCV genotype 1b replicon (K+ salt) was 1.31 nM. In addition, the IC50 in assay [1] (K+ salt) was 0.014 nM.

In the case of `CC[C@@H](C)OC(=O)N[C@H]1CCCCC/C=C\[C@@H]2C[C@@]2(C(=O)NS(=O)(=O)C2(C)CC2)NC(=O)[C@@H]2C[C@]3(CCc4c(c(C(F)F)nc5ccc(OC)cc45)O3)CN2C1=O` [Example 445, (2R)-butan-2-yl [(2R,6S,12Z,13aS,14aR,16aS)-5′-(difluoromethyl)-9′-methoxy-14a-{[(1-methylcyclopropyl)sulfonyl]carbamoyl}-5,16-dioxo-1,1′,2′,5,6,7,8,9,10,11,13a,14,14a,15,16,16a-hexadecahydrospiro[cyclopropa[e]pyrrolo[1,2-a][1,4]diazacyclopentadecine-2,3′-pyrano[2,3-c]quinolin]-6-yl]carbamate], in the assay on HCV genotype 1b replicon (K+ salt), the concentration giving a half-maximal response (EC50) came out at 1.14 nM. Further, in assay [1] (K+ salt), the IC50 is 0.014 nM.

For `COc1ccc2nc(C(F)F)c3c(c2c1)CC[C@]1(C[C@H]2C(=O)N[C@]4(C(=O)NS(=O)(=O)C5(C)CC5)C[C@H]4/C=C\CCCCC[C@H](NC(=O)OC(C)C)C(=O)N2C1)O3` [Example 446, propan-2-yl [(2R,6S,12Z,13aS,14aR,16aS)-5′-(difluoromethyl)-9′-methoxy-14a-{[(1-methylcyclopropyl)sulfonyl]carbamoyl}-5,16-dioxo-1,1′,2′,5,6,7,8,9,10,11,13a,14,14a,15,16,16a-hexadecahydrospiro[cyclopropa[e]pyrrolo[1,2-a][1,4]diazacyclopentadecine-2,3′-pyrano[2,3-c]quinolin]-6-yl]carbamate], the EC50 in the assay on HCV genotype 1b replicon came to 1.17 nM. This compound also yielded a concentration for half-maximal inhibition (IC50) in assay [1] of 0.013 nM.

For the compound `COc1ccc2nc(C(F)(F)F)c3c(c2c1)CC[C@]1(C[C@H]2C(=O)N[C@]4(C(=O)NS(=O)(=O)C5(C)CC5)C[C@H]4/C=C\CCCCC[C@H](NC(=O)OC(C)C)C(=O)N2C1)O3` [Example 447, propan-2-yl [(2R,6S,12Z,13aS,14aR,16aS)-9′-methoxy-14a-{[(1-methylcyclopropyl)sulfonyl]carbamoyl}-5,16-dioxo-5′-(trifluoromethyl)-1,1′,2′,5,6,7,8,9,10,11,13a,14,14a,15,16,16a-hexadecahydrospiro[cyclopropa[e]pyrrolo[1,2-a][1,4]diazacyclopentadecine-2,3′-pyrano[2,3-c]quinolin]-6-yl]carbamate], the concentration for a half-maximal effect (EC50) in the assay with HCV genotype 1b replicon was 1.37 nM. Also, the concentration for half-maximal inhibition (IC50) in assay [1] was found to be 0.019 nM.

On to `CCCOC(=O)N[C@H]1CCCCC/C=C\[C@@H]2C[C@@]2(C(=O)NS(=O)(=O)C2(C)CC2)NC(=O)[C@@H]2C[C@]3(CCc4c(c(C(F)(F)F)nc5ccc(OC)cc45)O3)CN2C1=O` [Example 448, propyl [(2R,6S,12Z,13aS,14aR,16aS)-9′-methoxy-14a-{[(1-methylcyclopropyl)sulfonyl]carbamoyl}-5,16-dioxo-5′-(trifluoromethyl)-1,1′,2′,5,6,7,8,9,10,11,13a,14,14a,15,16,16a-hexadecahydrospiro[cyclopropa[e]pyrrolo[1,2-a][1,4]diazacyclopentadecine-2,3′-pyrano[2,3-c]quinolin]-6-yl]carbamate], for which, in the assay on HCV genotype 1b replicon, the EC50 stood at 2.69 nM. In assay [1], this compound displayed a concentration for half-maximal inhibition (IC50) of 0.006 nM.

(Values after patent US8987195B2 (priority 2012, dated 2015).)
